Measured values taken from patent publication US20240165182A1, “METHOD OF EXTRACTION OF PROANTHOCYANIDINS COMPOUND FROM PINE BARK OF PINUS ROXBURGHII” (AMBE PHYTOEXTRACTS PVT. LTD., priority 2022, published 2024).

Columns and labels:
[1] = test system: Human keratinocytes (HaCaT); experiment: GSH modulation assay against hydrogen peroxide induced oxidative stress (GSH ELISA); type: cell-based; settings: H2O2 500 μm 3 hours, tested concentration 17.61 μg/ml (positive control)
Procedure: For conducting the analysis, 10 mg of Pine bark extract from Pinus roxburghii (Pinorox®) was dissolved in a DMSO (Dimethyl sulfoxide) solution. The volume of the test solution was made up using DMEM-HG (Dulbecco's Modified eagle Medium) and supplemented with 2% inactivated FBS (Fetal bovine serum) to acquire a solution with concentration of 10 mg/ml. The test solution was further proceeded with sterilization using syringe filtration. For carrying out the cytotoxic analysis, a two-fold serial dilution was prepared. The cell line of Human keratinocytes (HaCaT) was obtained from Addex Bio, USA and were cultured in DMEM-HG supplemented media with 10% inactivated fetal bovine serum (FBS), penicillin (100 IU/mL), streptomycin ([…]) and amphotericin B (5 μg/mL) in a wet atmosphere of 5% CO2 at a temperature of 37° C. until confluent. […] The samples were analyzed to estimate the levels of GSH using Elab science GSH ELISA kit by following the manufacturer's instruction. […]

[2] = Total antioxidant capacity (TAC) assay, sulphuric acid/sodium phosphate/ammonium molybdate reagent; settings: concentration 1000 μg/ml, 90 minutes at 95° C.
Procedure: The assay was performed to evaluate the total antioxidant capacity of a Pinorox® i.e. Pine bark extract from Pinus roxburghii against the standard ascorbic acid for in-vitro study. Antioxidants are compounds that are capable of inhibiting the process of oxidation that occurs under the influence of atmospheric oxygen or reactive oxygen species. The antioxidants are employed for stabilizing polymeric products, petrochemicals, cosmetics and food stuff along with pharmaceuticals. Antioxidants are involved in defense mechanisms of an organism against the associated pathologies in order to attack the free radicals. The test is carried out to check the total antioxidant capacity of a pine bark extract in order to avoid nutritional loss. The total antioxidant capacity of Pinorox® i.e. Pine bark extract from Pinus roxburghii was found out to be 756.993±0.150 mM equivalent of the ascorbic acid having 1000±0.027 mM at 1000 μg/mL. Pine bark extract of 5.5 mg each/ascorbic acid were subjected to dissolve in 0.5 ml of DMSO (Dimethyl sulfoxide) in a separate container. 0.244 ml of 0.6 M sulphuric acid was added to a 15 ml of distilled water. […] The absorbance was recorded at […] via ELISA (enzyme-linked immunosorbent assay) reader and the values were recorded. The total activity of antioxidant was expressed as mM which is equivalent of ascorbic acid. […]

SMILES: O=C1O[C@H]([C@@H](O)CO)C(O)=C1O [Ascorbic acid]
- % Increase in GSH level over hydrogen peroxide control [1]: 95.59±0.03%
- TAC (total antioxidant capacity) [2]: 1000 ± 0.027 mM equivalent of ascorbic acid
- TAC (total antioxidant capacity) ([2]; listed as ascorbic acid): 1000±0.027 mM equivalent of ascorbic acid
